We go through three compounds from US5637600A, “Phenylpyrrole derivatives and their use as dopamine D3 antagonists” (SmithKline Beecham p.l.c., priority 1994, dated 1997).

pIC50: −log10 of the molar value. Counter-ions that a name gives are not always drawn.

For this experiment, the target named is T1, human D3 dopamine receptors (Homo sapiens, UniProt P35462).
T1 construct: expressed in transfected cells; host or cells: CHO cells
T1 sequence (P35462 whole entry): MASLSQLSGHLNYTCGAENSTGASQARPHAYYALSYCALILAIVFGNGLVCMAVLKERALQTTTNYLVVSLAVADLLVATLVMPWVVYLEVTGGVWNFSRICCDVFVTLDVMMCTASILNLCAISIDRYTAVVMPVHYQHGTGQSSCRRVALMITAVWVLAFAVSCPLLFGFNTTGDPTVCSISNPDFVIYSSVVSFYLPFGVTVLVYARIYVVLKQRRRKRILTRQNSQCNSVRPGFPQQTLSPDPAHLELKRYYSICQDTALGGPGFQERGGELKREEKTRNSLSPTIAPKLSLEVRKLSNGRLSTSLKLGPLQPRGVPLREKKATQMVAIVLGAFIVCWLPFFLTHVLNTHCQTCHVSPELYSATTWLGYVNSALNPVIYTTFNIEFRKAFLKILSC
Briefly: [125I] iodosulpride displacement binding to cloned human D3 dopamine receptors expressed in CHO cells. The settings on record: displacement of 0.1 nM [125I] iodosulpride, CHO cell membranes, 30 min at 37° C.; read-out: IC50 values at the human D3 receptor. The procedure: The inhibition constants (Ki) of test compounds for displacement of [^125 I] iodosulpride binding to human D3 dopamine receptors expressed in CHO cells were determined as follows. […] Cultures were grown as monolayers or in suspension in standard cell culture media. Cells were recovered by scraping (from monolayers) or by centrifugation (from suspension cultures), and were washed two or three times by suspension in phosphate buffered saline followed by collection by centrifugation. Cell pellets were stored frozen at -40° C. Crude cell membranes were prepared by homogenisation followed by high-speed centrifugation, and characterisation of cloned receptors achieved by radioligand binding.
Cell pellets were gently thawed at room temperature, and resuspended in about 20 volumes of ice-cold 50 mM Tris salts (pH 7.4@37° C.), 20 mM EDTA, 0.2M sucrose. The suspension was homogenised using an Ultra-Turrax at full speed for 15 sec. The homogenate was centrifuged at 18,000 r.p.m for 20 min at 4° C. in a SorvalI RC5C centrifuge. The membrane pellet was resuspended in ice-cold 50 mM Tris salts (pH 7.4@37° C.), using an Ultra-Turrax, and recentrifuged at 18,000 r.p.m for 15 min at 4° C. in a Sorvall RC5C. The membranes were washed two more times with ice-cold 50 mM Tris salts (pH 7.4@37° C.). The final pellet was resuspended in 50 mM Tris salts (pH 7.4@37° C.), and the protein content determined using bovine serum albumin as a standard (Bradford, M. M. (1976) Anal. Biochem. 72, 248-254).
Crude cell membranes were incubated with 0.1 nM [^125 I] iodosulpride (~2000 Ci/mmol; Amersham, U. K.), and the test compound in a buffer containing 50 mM Tris salts (pH 7.4@37° C.), 120 mM NaCl, 5 mM KCl, 2 mM CaCl2, 1 mM MgCl2, 0.1% (w/v) bovine serum albumin, in a total volume of 1 ml for 30 min at 37° C. […] The radioactivity on the filters was measured using a Cobra gamma counter (Canberra Packard). […]
Competition curves were analysed simultaneously whenever possible using non-linear least-squares fitting procedures, capable of fitting one, two or three site models.
The pIC50 is −log10 of the IC50, conventionally taken in molar units. As for `CCN1CCCC1c1ccc(-c2cc(S(=O)(=O)Oc3ccccc3)ccc2OC)[nH]1` (racemic) [Example 2, 2-(2-(R,S)-(1-Ethylpyrrolidinyl))-5-(2-methoxy-5-phenoxysulphonylphenyl)-1H-pyrrole hydrochloride.], the pIC50 is 7.70 to 8.30. For `COc1ccc(S(=O)(=O)Oc2ccccc2)cc1-c1ccc(CN2CCCCCC2c2ccccc2)[nH]1` (stereo not drawn) [Example 1, 2-(2-Methoxy-5-Phenoxysulfonylphenyl)-5-(1-[2-phenylazacycloheptyl]methyl)-1H-pyrrole, hydrochloride] the value was 7.70 to 8.30; for `CCN(Cc1ccccc1)Cc1ccc(-c2cc(S(=O)(=O)Oc3ccccc3)ccc2OC)[nH]1` [Example 3, 2-(N-Benzyl-N-ethyl)aminomethyl-5-(2-methoxy-5-phenoxysulphonylphenyl)-1H-pyrrole hydrochloride], 7.70 to 8.30.
